Results: patent US9359298B2, “Cajanine structure analogous compound, preparation method and use” (INSTITUTE OF MEDICINAL BIOTECHNOLOGY, CHINESE ACADEMY OF …, priority 2011, dated 2016)
≈ marks a conversion by molar mass, not a printed value. Where two headings read alike, the source gives them in different places.

Assays:
Assay type in all cases: cell-based
PC12 cells [1] = test: Neuroprotective activity assay, rotenone injury to PC12 cells (MTT); settings: for viability at 10 µM: Rattus norvegicus, PC-12, 48 h, 10 μM test compound, 4 μM rotenone, 48 h, Control 100.0 ± 8.9, Model 73.2 ± 7.8, read-out: rotenone (surviving PC12 cells, MTT 570 nm); for protective effect on rotenone injury to PC12 cells: statement in words
In short: (§1)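 PC12 cells on poly-lysine plated 24 h, then injured 48 h by serum-free DMEM or 4 μM rotenone with 10 μM test compound present during injury. Viability read by MTT (4 h), absorbance 570 nm.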

Coxsackie virus B6 = test: Coxsackie virus activity assay (CPE in Vero cells); settings: Vero, read-out: COX-B6 IC50, Vero cells, about 100TCID50, CPE, Reed-Muench
[2] = tested on: Influenza A virus (hanfang359/95); test: Determination of anti-influenza virus activity (CPE in MDCK cells); settings: for IC50: Influenza A virus, MDCK, 36 h; for anti-influenza virus activities compared with the lead compound cajanine: statement in words
HIV-1 III B virus = test: Anti-HIV activity assay (P24 antigen in MT-4 cells); settings: for IC50: Human immunodeficiency virus 1, MT4, 96 h, read-out: HIV IC50
PC12 cells [3] = test: Neuroprotective activity assay, serum-deprived injury to PC12 cells (MTT); settings: for viability at 10 µM: Rattus norvegicus, PC-12, 48 h, 10 μM test compound, 48 h, Control 100.0 ± 9.2, Model 69.3 ± 4.1, read-out: serum-deprived (surviving PC12 cells, MTT 570 nm); for protective effect on serum-deprived injury to PC12 cells: statement in words
In short: as §1

HCV = test: Anti-hepatitis C virus (HCV) activity assay (HCV RNA in Huh7.5 cells); settings: for EC50: Hepatitis C virus, Huh7.5, 72 h, Huh7.5 cells, 72 h, HCV RNA by RT-PCR, Reed-Muench, read-out: HCV EC50
Protocol: Inoculate Huh7.5 cells into 96-well plates to a density of 3×10^4 cells/cm^2, culture for 24h, infect the cells with 45 IU/cell HCV supernatant, meanwhile, add drug solutions or solvent control for treatment.

[4] = MT-4 cells, HIV-1 III B 100TCID50, 96 h, P24 antigen

Structure (SMILES)	viability at 10 µM (PC12 cells [1]) [%]	protective effect on rotenone injury to PC12 cells (PC12 cells [1])	IC50 (Coxsackie virus B6) [µg/mL]	IC50 [2] [µg/mL]	IC50 (HIV-1 III B virus; [4]) [µg/mL]	viability at 10 µM (PC12 cells [3]) [%]	protective effect on serum-deprived injury to PC12 cells (PC12 cells [3])	EC50 (HCV) [µg/mL]	anti-influenza virus activities compared with the lead compound cajanine [2]	IC50 (HIV-1 III B virus) [µg/mL]	anti-HIV viral activity (HIV-1 III B virus; statement in words)	anti-HCV viral activity (HCV; statement in words)
COc1ccc(/C=C/c2cc(O)c(CC=C(C)C)c(OC)c2)cc1 [Compound 10c, 2-isopentenyl-3-methoxy-5-[(E)-4′-methoxystyryl]phenol]	80.3 ± 6.2	the strongest activities	2.35 (≈ 7.24 µM)	> 6.17	0.35 (≈ 1.08 µM)	81.6 ± 2.6	the strongest activities	7.17 (≈ 22.1 µM)				
COc1cccc(OC)c1/C=C/c1cc(O)c(CC=C(C)C)c(OC)c1 [Compound 10d, 2-isopentenyl-3-methoxy-5-[(E)-2′,6′-dimethoxy-styryl]phenol]	78.9 ± 6.1	the strongest activities	> 2.05	> 6.17	1.05 (≈ 2.96 µM)	79.3 ± 5.4	the strongest activities	2.37 (≈ 6.69 µM)				
COc1cc(/C=C/c2ccccc2C)cc(O)c1CC=C(C)C [Compound 10e, 2-isopentenyl-3-methoxy-5-[(E)-2′-methylstyryl]phenol]	70.2 ± 8.1		2.35 (≈ 7.62 µM)	1.92 (≈ 6.23 µM)	1.33 (≈ 4.31 µM)	65.3 ± 2.3		1.9 (≈ 6.16 µM)	significantly stronger than the lead compound cajanine			
COc1cc(/C=C/c2cccc(C)c2)cc(O)c1CC=C(C)C [Compound 10f, 2-isopentenyl-3-methoxy-5-[(E)-3′-methylstyryl]phenol]	76.5 ± 8		1.26 (≈ 4.09 µM)	0.89 (≈ 2.89 µM)	0.46 (≈ 1.49 µM)	74.5 ± 6.5		0.87 (≈ 2.82 µM)	significantly stronger than the lead compound cajanine			
COc1cc(/C=C/c2ccc(C)cc2)cc(O)c1CC=C(C)C [Compound 10g, 2-isopentenyl-3-methoxy-5-[(E)-4′-methylstyryl]phenol]	80.3 ± 3.2		1.18 (≈ 3.83 µM)	> 6.19		81.3 ± 2.5		3.09 (≈ 10 µM)		1.18 (≈ 3.83 µM)		
CC/C=C/c1cc(O)c(CC=C(C)C)c(OC)c1 [Compound 10h, 2-isopentenyl-3-methoxy-5-[(E)-buten-1-yl]phenol]	67.8 ± 8.5		> 2.06	0.74 (≈ 3 µM)	0.96 (≈ 3.9 µM)	65.8 ± 9.2		0.74 (≈ 3 µM)				
COc1cc(/C=C/c2cccs2)cc(O)c1CC=C(C)C [Compound 10j]	84.6 ± 5.2	the strongest activities	1.56 (≈ 5.19 µM)	> 18.5	0.66 (≈ 2.2 µM)	82.3 ± 2.5	the strongest activities	0.87 (≈ 2.9 µM)			stronger anti-HIV, HCV viral activities	stronger anti-HIV, HCV viral activities
COc1cc(/C=C/Cc2ccccc2)cc(O)c1CC=C(C)C [Compound 10k, 2-isopentenyl-3′-methoxy-5-[(E)-3′-phenylpropen-1′-yl]phenol]	84.6 ± 2.4	the strongest activities	> 2.06	0.89 (≈ 2.89 µM)	1.06 (≈ 3.44 µM)	85.6 ± 3.2	the strongest activities	0.99 (≈ 3.21 µM)	significantly stronger than the lead compound cajanine			
